Source: US9840515B2, “Protein kinase D inhibitors” (University of Pittsburgh—Of the Commonwealth System of …, priority 2010, dated 2017)
Like-named read-outs stand apart in the source and are kept apart here.

Legend:
[1] = molecular target: T1, purified recombinant human PKD1 (Homo sapiens, UniProt Q15139); assay: radiometric PKD kinase activity assay; assay type: biochemical
T1 sequence (Q15139 1-912): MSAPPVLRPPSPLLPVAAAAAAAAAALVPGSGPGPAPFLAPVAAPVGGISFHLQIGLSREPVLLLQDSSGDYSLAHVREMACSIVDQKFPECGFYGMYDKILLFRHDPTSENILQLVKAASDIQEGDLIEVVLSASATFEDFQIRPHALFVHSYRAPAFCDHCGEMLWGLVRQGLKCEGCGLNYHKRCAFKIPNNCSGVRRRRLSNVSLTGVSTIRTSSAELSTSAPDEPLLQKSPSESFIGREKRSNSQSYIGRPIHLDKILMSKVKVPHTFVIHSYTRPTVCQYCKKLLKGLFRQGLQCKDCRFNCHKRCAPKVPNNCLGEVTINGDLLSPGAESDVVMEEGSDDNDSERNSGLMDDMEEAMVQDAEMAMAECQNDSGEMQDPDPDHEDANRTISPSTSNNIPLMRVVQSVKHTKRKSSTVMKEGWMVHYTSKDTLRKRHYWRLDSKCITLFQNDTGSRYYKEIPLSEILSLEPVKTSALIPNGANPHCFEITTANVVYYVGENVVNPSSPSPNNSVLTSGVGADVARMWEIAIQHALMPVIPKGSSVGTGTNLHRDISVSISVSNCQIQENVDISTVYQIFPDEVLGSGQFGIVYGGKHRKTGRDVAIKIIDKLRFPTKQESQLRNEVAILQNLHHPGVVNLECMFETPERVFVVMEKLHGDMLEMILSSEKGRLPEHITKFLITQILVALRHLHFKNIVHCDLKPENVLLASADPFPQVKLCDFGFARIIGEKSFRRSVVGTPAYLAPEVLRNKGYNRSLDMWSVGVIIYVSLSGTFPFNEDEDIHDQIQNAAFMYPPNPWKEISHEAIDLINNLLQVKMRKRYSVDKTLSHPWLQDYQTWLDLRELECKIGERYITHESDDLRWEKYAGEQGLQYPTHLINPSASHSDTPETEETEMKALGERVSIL
Method: The radiometric PKD kinase assay was carried out by co-incubating 0.5 μCi γ-32P-ATP (PerkinElmer, Boston, Mass.), 20 μM ATP, 50 ng purified recombinant human PKD (PKD1, PKD2, PKD3) proteins, and 2.5 μg Syntide-2 (Sigma) in 50 μl kinase buffer that contains 50 mM Tris-HCl, pH 7.5, 4 mM MgCl2, 10 mM β-mercaptoethanol. The reaction was carried out under sub-saturation conditions, such that the initial rate was within linear kinetic range. The reaction mixture was incubated at 30° C. for 10 min, followed by spotting 25 μl of the mix onto a Whatman P81 filter paper (Whatman Inc, Clifton, N.J.). The filter papers were then washed three times in 0.5% phosphoric acid, air-dried, and counted using a Beckman LS6500 multi-purpose scintillation counter (Beckman, Fullerton, Calif.).

PKD1 [2] = molecular target: T2, PKD1 (Homo sapiens, UniProt Q15139); assay: Cellular inhibition of PMA-induced PKD1 S916 autophosphorylation in LNCaP cells (Western blot densitometry); assay type: cell-based; design: endogenous in cells; host or cells: LNCaP prostate cancer cells; conditions: for IC50: PKD1 autophosphorylation at S916 in LNCaP cells
T2 sequence (Q15139 1-912): T1 sequence (Q15139 1-912)
Method: The compound to be tested was dissolved in DMSO at an initial concentration of 10 mM. LNCaP prostate cancer cells were pre-treated with DMSO or increasing concentrations of the compound for 45 min, followed by treatment with or without 100 nM phorbol 12-myristate 13-acetate (PMA), an activator of PKD, for 20 min. The cells were harvested for Western blot analysis.
Briefly, cells were lysed in lysis buffer containing 200 mM Tris-HCl, pH 7.4, 100 μM 4-(2-aminoethyl)benzenesulfonyl fluoride, 1 mM EGTA, and 1% Triton X-100. Protein concentration was determined using the BCA Protein Concentration Assay reagent kit (Pierce). Equal amounts of protein were subjected to SDS-PAGE followed by electrotransfer to nitrocellulose membranes. Membranes were blocked with 5% nonfat milk in Tris-buffered saline and then probed with primary antibodies for p-S916-PKD1 (Millipore), p-S744/748-PKD1 (Cell Signaling Technology), or GAPDH (Enzo), followed by anti-mouse or anti-rabbit secondary antibodies conjugated to horseradish peroxidase (Bio-Rad). The bands were detected by incubating with the enhanced chemiluminescence (ECL) Western blotting detection reagent (Amersham Biosciences) and exposing to X-ray films.

PKD1 [3] = molecular target: T2, PKD1; assay: IMAP-FP PKD1 assay; assay type: biochemical
From the text: See Sharlow, E. R., et. al., J Biol Chem, 283: 33516-33526, (2008). The assay established the concentration of inhibitor that is required to reduce PKD1 activity by 50% (IC50), as shown in Table 2 above.

[4] = radiometric kinase activity assay, in vitro, read-out: IC50 PKD1
[5] = read-out: IC50 radiometric PKD1

| Compound | IC50 [1, 4] | IC50 (PKD1 [2]) | IC50 IMAP-FP PKD1 (PKD1 [3]) | melting point | IC50 (PKD1 [3]) | IC50 [1, 5] | cellular activity fold lower than kb-NB142-70 (PKD1 [2]) |
| --- | --- | --- | --- | --- | --- | --- | --- |
| O=C1NCCCc2c1oc1ccc(O)cc21 [CID755673, 7-Hydroxy-2,3,4,5-tetrahydro-[1]benzoxolo[2,3-c]azepin-1-one, reference compound] | 182 ± 27 nM | 11800 nM |  |  |  |  |  |
| O=C1NCCc2c1[nH]c1ccc(OCc3ccccc3)cc21 [kb-NB123-52, 2,3,4,9-Tetrahydro-6-benzyloxy-1H-pyrido[3,4-b]indol-1-one] |  |  | not inhibitory | 208 to 210 °C |  |  |  |
| O=C1NCCCc2c1oc1ccc(O)c(Cl)c21 [kb-NB77-88, 6-Chloro-7-hydroxy-2,3,4,5-tetrahydro-[1]benzoxolo[2,3-c]azepin-1-one] |  |  |  | > 300 °C | 1400 ± 100 nM | 890 nM |  |
| O=C1NCCCc2c1[nH]c1ccc(OCc3ccccc3)cc21 [kb-NB123-53, 3,4,5,10-Tetrahydro-7-benzyloxy-azepino[3,4-b]indol-1(2H)-one] |  |  | not inhibitory |  |  |  |  |
| O=C1NCCC(=O)c2c1oc1ccc(O)cc21 [kb-NB123-63, 7-Hydroxy-2H,3H,4H-azepino[5,6-d]benzo[b]furan-1,5-dione] |  |  |  | > 300 °C | 14900 ± 1200 nM | 850 ± 110 nM |  |
| Nc1ccc2[nH]c3c(c2c1)CCCNC3=O [kb-NB142-01] |  |  |  | 202 to 207 °C | 47100 ± 2500 nM | 9680 ± 1010 nM |  |
| O=C1NCCc2c1[nH]c1ccc(O)cc21 [kb-NB123-59, 2,3,4,9-Tetrahydro-6-hydroxy-1H-pyrido[3,4-b]indol-1-one] |  |  |  | 244 to 247 °C | 19400 ± 1400 nM | 1570 ± 200 nM |  |
| C=CCOc1ccc2oc3c(c2c1Cl)CCCNC3=O [kb-NB96-50, 7-Allyloxy-6-chloro-2,3,4,5-tetrahydro-[1]benzoxolo[2,3-c]azepin-1-one] |  |  | not inhibitory | 192 to 194 °C |  |  |  |
| O=C1NCCC(=NOCc2ccccc2)c2c1oc1ccc(O)cc21 [kb-NB142-10, 7-Hydroxy-5-[(phenylmethoxy)azamethylene]-2H,3H,4H-azepino[5,6-d]benzo[b]furan-1-one] |  |  | not inhibitory | 103 to 110 °C |  |  |  |
| O=C1NCCCc2c1oc1cc(Cl)c(O)c(Cl)c21 [kb-NB96-43, 6,8-Dichloro-7-hydroxy-2,3,4,5-tetrahydro-[1]benzoxolo[2,3-c]azepin-1-one] |  |  | not inhibitory | 298 to 301 °C |  |  |  |
| CC(=O)Nc1ccc2[nH]c3c(c2c1)CCCNC3=O [kb-NB123-94] |  |  | not inhibitory | > 300 °C |  |  |  |
| Cc1ccc(S(=O)(=O)NN=C2CCNC(=O)c3oc4ccc(O)cc4c32)cc1 [kb-NB142-11, 7-Hydroxy-5-({[(4-methylphenyl)sulfonyl]amino}azamethylene)-2H,3H,4H-azepino[5,6-d]benzo[b]furan-1-one] |  |  |  | 220 to 224 °C | 38200 ± 1170 nM |  |  |
| Nc1ccc2[nH]c3c(c2c1)CCNC3=O [kb-NB142-08, 6-Amino-2,3,4,9-tetrahydro-1H-pyrido[3,4-b]indol-1-one] |  |  |  | 280 to 282 °C | 74400 ± 2200 nM | 15700 ± 190 nM |  |
| O=C1NCCCc2c1oc1ccc(O)c(F)c21 [kb-NB96-21, 6-Fluoro-7-hydroxy-2,3,4,5-tetrahydro-[1]benzoxolo[2,3-c]azepin-1-one] |  |  |  | > 300 °C | 1300 ± 50 nM | 240 nM |  |
| O=C1NCCSc2c1sc1ccc(O)c(I)c21 [kb-NB165-31, 3,4-Dihydro-9-hydroxy-10-iodo-[1]benzothieno[2,3-f]-1,4-thiazepin-5(2H)-one] | 114 nM | 8600 ± 2000 nM |  | 128 °C (dec.) |  | 110 ± 20 nM | 4 fold |
| C=CCc1c(O)ccc2oc3c(c12)CCCNC3=O [kb-NB96-02, 6-Allyl-7-hydroxy-2,3,4,5-tetrahydro-[1]benzoxolo[2,3-c]azepin-1-one] |  |  |  | 255 to 257 °C | 2400 ± 300 nM | 1580 nM |  |
| O=C1NCCC(=NNc2ccccc2)c2c1oc1ccc(O)cc21 [kb-NB142-05, 7-Hydroxy-5-[(phenylamino)azamethylene]-2H,3H,4H-azepino[5,6-d]benzo[b]furan-1-one] |  |  |  | 234 to 236 °C | 21700 ± 520 nM | 1130 nM |  |
| CC(=O)Nc1ccc2[nH]c3c(c2c1)CCNC3=O [kb-NB123-93, N-(2,3,4,9-Tetrahydro-1-oxo-1H-pyrido[3,4-b]indol-6-yl)-acetamide] |  |  | not inhibitory | > 300 °C |  |  |  |
| O=C1NCCC(O)c2c1oc1ccc(O)cc21 (stereo not drawn) [kb-NB123-89, 5,7-Dihydroxy-2H,3H,4H,5H-azepino[5,6-d]benzo[b]furan-1-one] |  |  |  | 280 to 282 °C | 24100 ± 710 nM | 1230 ± 210 nM |  |
| C/C=C/c1c(O)ccc2oc3c(c12)CCCNC3=O [kb-NB96-30, 6-[(E)-2-(Prop-1-enyl)]-7-hydroxy-2,3,4,5-tetrahydro-[1]benzoxolo[2,3-c]azepin-1-one] |  |  |  | > 300 °C | 1000 ± 100 nM | 240 nM |  |
| O=C1NCCCc2c1oc1cc(Cl)c(O)cc21 [kb-NB96-47-5, 8-Chloro-7-hydroxy-2,3,4,5-tetrahydro-[1]benzoxolo[2,3-c]azepin-1-one] |  |  |  | 327 to 332 °C | > 100000 nM |  |  |
